Laboratory results published in ChEMBL document CHEMBL1743141, “Membrane transporters in drug development” (Nat Rev Drug Discov, 2010).

Legend:
Assay type in all cases: ADME
[1] = molecular target: T1, Solute carrier family 22 member 2 (Homo sapiens, UniProt O15244); experiment: Substrates of transporters of clinical importance in the absorption and disposition of drugs, OCT2
T1 sequence (O15244 whole entry): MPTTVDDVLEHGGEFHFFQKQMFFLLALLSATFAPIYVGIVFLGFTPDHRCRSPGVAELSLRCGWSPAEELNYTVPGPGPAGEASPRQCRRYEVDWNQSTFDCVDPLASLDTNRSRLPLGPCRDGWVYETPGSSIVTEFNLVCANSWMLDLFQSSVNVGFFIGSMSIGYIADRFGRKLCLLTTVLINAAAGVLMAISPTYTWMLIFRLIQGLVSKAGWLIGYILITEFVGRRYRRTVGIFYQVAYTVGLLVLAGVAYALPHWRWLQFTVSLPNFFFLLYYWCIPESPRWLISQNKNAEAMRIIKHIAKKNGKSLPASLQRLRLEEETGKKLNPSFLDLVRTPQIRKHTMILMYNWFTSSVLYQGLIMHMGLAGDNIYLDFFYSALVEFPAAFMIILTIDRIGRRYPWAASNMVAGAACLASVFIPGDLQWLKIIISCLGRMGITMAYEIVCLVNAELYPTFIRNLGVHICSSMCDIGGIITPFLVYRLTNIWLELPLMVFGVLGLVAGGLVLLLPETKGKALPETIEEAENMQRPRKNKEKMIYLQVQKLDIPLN

[2] = molecular target: T2, Solute carrier family 22 member 1 (Homo sapiens, UniProt O15245); experiment: Substrates of transporters of clinical importance in the absorption and disposition of drugs, OCT1
T2 sequence (O15245 whole entry): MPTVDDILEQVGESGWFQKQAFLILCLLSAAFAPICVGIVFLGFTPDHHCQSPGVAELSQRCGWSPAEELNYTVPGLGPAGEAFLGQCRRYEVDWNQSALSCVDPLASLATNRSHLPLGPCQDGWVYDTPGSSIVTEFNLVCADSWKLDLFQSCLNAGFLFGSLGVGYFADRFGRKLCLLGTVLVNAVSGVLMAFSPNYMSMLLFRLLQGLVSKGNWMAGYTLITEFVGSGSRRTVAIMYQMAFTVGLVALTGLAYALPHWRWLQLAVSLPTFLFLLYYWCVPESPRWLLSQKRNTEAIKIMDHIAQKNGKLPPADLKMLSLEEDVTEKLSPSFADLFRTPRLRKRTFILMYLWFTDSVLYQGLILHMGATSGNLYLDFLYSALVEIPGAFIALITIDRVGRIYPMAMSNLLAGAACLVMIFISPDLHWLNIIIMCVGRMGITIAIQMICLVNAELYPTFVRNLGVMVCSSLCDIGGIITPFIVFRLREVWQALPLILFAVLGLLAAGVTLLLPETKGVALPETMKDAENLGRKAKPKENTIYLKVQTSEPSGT

[3] = molecular target: T3, Multidrug and toxin extrusion protein 2 (Homo sapiens, UniProt Q86VL8); experiment: Substrates of transporters of clinical importance in the absorption and disposition of drugs, MATE2-K
T3 sequence (Q86VL8 whole entry): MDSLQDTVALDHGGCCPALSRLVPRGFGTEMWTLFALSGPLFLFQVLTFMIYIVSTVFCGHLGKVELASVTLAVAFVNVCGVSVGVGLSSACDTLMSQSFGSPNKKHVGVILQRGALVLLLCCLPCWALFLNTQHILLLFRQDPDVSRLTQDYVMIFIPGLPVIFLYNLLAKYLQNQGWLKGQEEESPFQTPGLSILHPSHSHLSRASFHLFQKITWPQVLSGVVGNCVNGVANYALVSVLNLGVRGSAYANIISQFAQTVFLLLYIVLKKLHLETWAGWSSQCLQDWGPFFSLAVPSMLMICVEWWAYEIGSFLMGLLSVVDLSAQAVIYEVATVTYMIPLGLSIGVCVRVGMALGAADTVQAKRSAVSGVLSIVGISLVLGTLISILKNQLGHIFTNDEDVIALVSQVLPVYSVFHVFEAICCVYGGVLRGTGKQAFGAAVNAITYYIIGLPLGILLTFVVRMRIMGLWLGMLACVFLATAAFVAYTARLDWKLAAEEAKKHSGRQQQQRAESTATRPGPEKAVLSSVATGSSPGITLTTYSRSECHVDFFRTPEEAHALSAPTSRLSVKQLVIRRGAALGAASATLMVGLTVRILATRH

[4] = molecular target: T4, Multidrug and toxin extrusion protein 1 (Homo sapiens, UniProt Q96FL8); experiment: Substrates of transporters of clinical importance in the absorption and disposition of drugs, MATE1
T4 sequence (Q96FL8 whole entry): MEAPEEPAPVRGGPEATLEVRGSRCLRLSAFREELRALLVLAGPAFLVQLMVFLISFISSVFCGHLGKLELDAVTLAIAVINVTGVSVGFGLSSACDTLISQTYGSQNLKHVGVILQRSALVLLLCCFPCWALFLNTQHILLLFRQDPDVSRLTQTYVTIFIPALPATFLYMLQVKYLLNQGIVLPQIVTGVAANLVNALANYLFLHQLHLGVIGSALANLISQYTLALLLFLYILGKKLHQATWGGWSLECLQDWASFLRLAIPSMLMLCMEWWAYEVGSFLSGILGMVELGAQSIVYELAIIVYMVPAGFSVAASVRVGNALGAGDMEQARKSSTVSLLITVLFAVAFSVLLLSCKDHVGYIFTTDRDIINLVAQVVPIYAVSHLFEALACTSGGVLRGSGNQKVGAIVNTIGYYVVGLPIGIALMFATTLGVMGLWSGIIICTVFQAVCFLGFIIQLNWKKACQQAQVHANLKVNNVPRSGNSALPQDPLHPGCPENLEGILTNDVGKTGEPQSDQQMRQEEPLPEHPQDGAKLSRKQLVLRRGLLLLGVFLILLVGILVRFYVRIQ

[5] = molecular target: ATP-binding cassette sub-family C member 2 (Homo sapiens, UniProt Q92887); experiment: Substrates of transporters of clinical importance in the absorption and disposition of drugs, MRP2
ATP-binding cassette sub-family C member 2, sequence (Q92887 whole entry): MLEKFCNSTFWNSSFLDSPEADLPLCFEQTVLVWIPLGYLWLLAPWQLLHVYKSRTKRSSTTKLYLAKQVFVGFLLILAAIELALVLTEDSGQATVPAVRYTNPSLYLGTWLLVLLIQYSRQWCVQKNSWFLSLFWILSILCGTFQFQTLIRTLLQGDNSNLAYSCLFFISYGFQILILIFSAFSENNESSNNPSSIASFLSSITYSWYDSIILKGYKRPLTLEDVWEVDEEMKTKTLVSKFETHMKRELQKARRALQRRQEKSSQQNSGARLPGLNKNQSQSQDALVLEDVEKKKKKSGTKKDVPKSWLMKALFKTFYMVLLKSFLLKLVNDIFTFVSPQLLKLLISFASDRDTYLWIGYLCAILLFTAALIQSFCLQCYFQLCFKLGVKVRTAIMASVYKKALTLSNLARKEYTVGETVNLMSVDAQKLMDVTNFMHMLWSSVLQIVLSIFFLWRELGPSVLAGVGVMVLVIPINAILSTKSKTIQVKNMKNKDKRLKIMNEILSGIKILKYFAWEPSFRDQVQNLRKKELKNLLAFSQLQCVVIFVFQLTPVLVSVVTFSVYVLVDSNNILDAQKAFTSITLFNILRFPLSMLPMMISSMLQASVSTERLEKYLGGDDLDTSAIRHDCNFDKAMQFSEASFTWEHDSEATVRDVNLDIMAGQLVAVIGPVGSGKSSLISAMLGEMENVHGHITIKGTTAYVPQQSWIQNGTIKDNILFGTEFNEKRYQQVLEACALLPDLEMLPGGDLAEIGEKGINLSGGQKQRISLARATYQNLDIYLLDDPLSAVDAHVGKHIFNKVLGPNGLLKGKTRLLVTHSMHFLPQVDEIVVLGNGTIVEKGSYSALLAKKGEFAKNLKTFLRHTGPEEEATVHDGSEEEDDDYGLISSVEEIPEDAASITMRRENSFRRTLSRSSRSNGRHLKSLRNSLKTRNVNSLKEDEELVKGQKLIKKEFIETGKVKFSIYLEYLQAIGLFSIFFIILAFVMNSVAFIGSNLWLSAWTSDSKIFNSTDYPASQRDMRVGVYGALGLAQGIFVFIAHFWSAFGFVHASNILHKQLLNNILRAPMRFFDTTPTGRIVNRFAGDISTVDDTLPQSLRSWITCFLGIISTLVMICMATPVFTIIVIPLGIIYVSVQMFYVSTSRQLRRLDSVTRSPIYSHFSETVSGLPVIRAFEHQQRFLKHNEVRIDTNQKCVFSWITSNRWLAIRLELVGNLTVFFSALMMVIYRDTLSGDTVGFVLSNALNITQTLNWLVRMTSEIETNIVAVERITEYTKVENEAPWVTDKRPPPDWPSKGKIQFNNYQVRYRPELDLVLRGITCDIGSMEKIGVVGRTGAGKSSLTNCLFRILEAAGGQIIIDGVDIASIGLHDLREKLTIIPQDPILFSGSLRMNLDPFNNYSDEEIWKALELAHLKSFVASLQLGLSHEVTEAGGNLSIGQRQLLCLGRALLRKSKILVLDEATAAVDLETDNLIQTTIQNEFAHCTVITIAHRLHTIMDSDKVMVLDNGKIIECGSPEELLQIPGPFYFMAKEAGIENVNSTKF

[6] = molecular target: T5, Broad substrate specificity ATP-binding cassette transporter ABCG2 (Homo sapiens, UniProt Q9UNQ0); experiment: Substrates of transporters of clinical importance in the absorption and disposition of drugs, BCRP
T5 sequence (Q9UNQ0 whole entry): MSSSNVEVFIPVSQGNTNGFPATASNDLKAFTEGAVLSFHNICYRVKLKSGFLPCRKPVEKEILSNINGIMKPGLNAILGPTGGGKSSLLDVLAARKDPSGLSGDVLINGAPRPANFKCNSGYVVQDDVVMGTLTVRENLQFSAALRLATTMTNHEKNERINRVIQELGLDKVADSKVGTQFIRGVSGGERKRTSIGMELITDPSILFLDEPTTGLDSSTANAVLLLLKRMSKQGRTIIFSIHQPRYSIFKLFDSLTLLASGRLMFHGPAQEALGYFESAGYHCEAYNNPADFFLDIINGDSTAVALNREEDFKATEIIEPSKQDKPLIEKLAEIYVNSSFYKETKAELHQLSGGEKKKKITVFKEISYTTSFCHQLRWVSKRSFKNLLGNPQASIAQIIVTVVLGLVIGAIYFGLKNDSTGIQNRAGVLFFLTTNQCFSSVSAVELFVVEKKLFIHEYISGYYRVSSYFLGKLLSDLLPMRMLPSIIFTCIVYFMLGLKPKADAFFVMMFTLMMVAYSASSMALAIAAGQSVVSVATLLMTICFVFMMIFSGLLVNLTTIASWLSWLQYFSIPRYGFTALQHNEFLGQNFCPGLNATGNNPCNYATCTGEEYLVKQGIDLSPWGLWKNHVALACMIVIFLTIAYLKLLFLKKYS

[7] = molecular target: T6, ATP-binding cassette sub-family C member 4 (Homo sapiens, UniProt O15439); experiment: Substrates of transporters of clinical importance in the absorption and disposition of drugs, MRP4
T6 sequence (O15439 whole entry): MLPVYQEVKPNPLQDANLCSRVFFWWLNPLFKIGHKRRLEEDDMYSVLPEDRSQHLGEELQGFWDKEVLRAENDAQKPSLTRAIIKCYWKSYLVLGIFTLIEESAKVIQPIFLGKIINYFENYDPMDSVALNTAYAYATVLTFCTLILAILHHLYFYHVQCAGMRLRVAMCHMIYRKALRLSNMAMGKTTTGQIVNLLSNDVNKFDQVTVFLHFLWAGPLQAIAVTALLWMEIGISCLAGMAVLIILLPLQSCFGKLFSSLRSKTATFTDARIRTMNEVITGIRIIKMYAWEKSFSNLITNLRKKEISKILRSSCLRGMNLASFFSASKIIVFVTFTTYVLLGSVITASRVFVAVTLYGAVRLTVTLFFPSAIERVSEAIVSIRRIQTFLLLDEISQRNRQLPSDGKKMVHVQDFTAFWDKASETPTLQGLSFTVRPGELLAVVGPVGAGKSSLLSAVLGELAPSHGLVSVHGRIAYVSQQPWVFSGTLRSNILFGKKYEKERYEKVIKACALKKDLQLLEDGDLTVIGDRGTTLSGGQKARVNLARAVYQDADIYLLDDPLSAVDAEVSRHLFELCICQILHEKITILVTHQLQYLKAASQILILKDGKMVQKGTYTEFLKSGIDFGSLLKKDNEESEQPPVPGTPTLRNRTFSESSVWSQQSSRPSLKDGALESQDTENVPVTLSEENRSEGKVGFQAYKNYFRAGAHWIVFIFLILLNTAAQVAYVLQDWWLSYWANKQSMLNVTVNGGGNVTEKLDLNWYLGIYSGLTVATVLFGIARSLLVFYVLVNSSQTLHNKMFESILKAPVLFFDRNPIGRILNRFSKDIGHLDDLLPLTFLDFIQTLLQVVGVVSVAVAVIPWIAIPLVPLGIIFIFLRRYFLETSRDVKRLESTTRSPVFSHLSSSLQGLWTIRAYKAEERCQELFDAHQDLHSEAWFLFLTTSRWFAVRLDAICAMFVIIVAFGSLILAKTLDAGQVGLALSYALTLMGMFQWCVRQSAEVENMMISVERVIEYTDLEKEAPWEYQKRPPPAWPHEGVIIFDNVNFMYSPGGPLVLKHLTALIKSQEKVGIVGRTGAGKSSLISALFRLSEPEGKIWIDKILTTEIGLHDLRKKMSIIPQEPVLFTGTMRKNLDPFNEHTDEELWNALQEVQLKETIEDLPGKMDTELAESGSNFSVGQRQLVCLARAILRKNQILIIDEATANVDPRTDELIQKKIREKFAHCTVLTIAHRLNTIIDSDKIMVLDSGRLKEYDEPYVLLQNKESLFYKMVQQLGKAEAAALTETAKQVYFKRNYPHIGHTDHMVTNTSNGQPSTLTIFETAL

[8] = molecular target: T7, Solute carrier organic anion transporter family member 1A2 (Homo sapiens, UniProt P46721); experiment: Inhibitors of transporters of clinical importance in the absorption and disposition of drugs, OATP1A2
T7 sequence (P46721 whole entry): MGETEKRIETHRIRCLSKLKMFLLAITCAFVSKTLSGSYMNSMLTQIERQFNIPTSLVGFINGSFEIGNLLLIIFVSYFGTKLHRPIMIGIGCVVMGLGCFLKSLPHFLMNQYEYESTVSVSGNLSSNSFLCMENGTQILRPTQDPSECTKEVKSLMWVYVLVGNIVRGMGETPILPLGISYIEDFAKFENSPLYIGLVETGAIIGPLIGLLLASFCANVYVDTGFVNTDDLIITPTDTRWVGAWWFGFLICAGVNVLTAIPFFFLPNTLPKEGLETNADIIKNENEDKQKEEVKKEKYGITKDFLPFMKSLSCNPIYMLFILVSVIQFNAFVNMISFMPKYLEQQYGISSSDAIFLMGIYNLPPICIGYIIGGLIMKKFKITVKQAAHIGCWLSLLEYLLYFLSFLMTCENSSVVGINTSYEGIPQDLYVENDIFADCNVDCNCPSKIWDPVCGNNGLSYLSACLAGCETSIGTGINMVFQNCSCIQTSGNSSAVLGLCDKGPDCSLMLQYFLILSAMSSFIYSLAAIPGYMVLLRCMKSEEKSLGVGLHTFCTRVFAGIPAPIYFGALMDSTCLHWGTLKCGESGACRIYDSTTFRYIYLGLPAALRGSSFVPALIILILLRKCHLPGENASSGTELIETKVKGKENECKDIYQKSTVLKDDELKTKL

Q: What does the source list for `CN(C)C(=N)N=C(N)N` [METFORMIN]?
A: Activity [1]: transporter substrate; Activity [2]: transporter substrate; Activity [3]: transporter substrate; Activity [4]: transporter substrate

Q: What does the source list for `O=C1c2c(O)ccc(O)c2C(=O)c2c(NCCNCCO)ccc(NCCNCCO)c21` [MITOXANTRONE]?
A: Activity [5]: transporter substrate; Activity [6]: transporter substrate

Q: For `CC[C@@]1(O)C(=O)OCc2c1cc1n(c2=O)Cc2cc3c(CN(C)C)c(O)ccc3nc2-1` [TOPOTECAN], which Activity [7] is on record?
A: transporter substrate

Q: And the Activity [6]?
A: transporter substrate

Q: For `C[n+]1ccccc1`, which Activity [1] is on record?
A: transporter substrate

Q: What about the Activity [2] of the same molecule?
A: transporter substrate

Q: What about the Activity [3] of the same molecule?
A: transporter substrate

Q: What about the Activity [4] of the same molecule?
A: transporter substrate

Q: What does the source list for `CC[N+](CC)(CC)CC` [TETRYLAMMONIUM]?
A: Activity [1]: transporter substrate; Activity [2]: transporter substrate; Activity [3]: transporter substrate; Activity [4]: transporter substrate

Q: With `C[C@@H]1O[C@@H](O[C@H]2[C@H](Oc3cc(O)c4c(c3)O[C@H](c3ccc(O)cc3)CC4=O)O[C@H](CO)[C@@H](O)[C@@H]2O)[C@H](O)[C@H](O)[C@H]1O` [NARINGIN] as the molecule, how does the Activity [8] read?
A: transporter inhibitor
